Target: T1, human F508del CFTR (Homo sapiens, UniProt P13569, DEL508-508)
T1 construct: expressed in transfected cells; host or cells: Fisher Rat Thyroid (FRT) cells
Assay: CFTR-YFP High Throughput Assay
Assay type: cell-based
Conditions: FRT cells expressing human F508del CFTR and YFP; for Emax: EMax normalized to the positive control, read-out: % Efficacy
How it was run: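 Corrector mode: 24-26 h compound exposure (2 nM-40 μM, 37° C) of FRT cells carrying human F508del CFTR and YFP-H148Q/I152L, followed by washing and 60-120 min RT stimulation with 20 μM forskolin and 30 μM P3. CFTR activity is the least-squares-fitted rate of YFP quenching (Ex 500/Em 540 nm) after iodide addition.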

T1 sequence (P13569 with tags, fused parts or gaps DEL508-508): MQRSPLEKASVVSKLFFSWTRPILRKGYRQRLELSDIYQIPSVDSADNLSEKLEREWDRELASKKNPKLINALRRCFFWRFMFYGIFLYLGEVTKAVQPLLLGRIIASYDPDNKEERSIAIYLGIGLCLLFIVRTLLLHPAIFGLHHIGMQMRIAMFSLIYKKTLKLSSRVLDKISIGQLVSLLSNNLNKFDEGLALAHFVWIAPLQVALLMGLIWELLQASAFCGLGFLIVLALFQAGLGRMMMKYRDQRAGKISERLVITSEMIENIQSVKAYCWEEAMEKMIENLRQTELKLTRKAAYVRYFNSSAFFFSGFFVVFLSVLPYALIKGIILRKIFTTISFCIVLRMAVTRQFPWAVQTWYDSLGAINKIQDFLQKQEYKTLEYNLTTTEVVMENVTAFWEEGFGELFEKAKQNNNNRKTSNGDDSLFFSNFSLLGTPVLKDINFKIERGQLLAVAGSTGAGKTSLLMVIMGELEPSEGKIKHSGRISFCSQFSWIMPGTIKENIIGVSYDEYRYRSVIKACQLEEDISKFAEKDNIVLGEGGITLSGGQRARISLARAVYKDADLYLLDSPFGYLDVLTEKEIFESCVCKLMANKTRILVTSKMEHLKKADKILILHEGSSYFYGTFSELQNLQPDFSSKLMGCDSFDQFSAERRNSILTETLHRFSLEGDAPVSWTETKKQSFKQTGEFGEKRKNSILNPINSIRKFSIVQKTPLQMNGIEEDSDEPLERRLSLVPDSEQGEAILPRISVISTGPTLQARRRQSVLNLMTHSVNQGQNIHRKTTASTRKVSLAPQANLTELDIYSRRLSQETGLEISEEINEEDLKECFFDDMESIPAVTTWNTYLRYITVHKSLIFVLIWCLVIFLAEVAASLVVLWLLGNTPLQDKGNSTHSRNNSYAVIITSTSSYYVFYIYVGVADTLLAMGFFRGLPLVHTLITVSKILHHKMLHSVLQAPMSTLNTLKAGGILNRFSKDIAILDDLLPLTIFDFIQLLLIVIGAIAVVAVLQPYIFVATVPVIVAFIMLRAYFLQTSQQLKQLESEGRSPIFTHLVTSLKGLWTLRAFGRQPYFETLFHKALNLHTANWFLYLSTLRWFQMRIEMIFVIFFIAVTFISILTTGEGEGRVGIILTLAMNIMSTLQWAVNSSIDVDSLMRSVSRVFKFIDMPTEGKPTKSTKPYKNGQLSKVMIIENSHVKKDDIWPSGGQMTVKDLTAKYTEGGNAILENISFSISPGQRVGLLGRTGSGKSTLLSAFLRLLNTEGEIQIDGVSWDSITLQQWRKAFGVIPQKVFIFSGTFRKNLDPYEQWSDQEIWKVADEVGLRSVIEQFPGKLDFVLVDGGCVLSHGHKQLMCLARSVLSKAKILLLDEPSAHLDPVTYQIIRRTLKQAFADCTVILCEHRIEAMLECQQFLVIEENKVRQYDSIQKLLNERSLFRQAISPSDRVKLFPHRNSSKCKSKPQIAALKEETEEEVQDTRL

Emax [%] | EC50 [µM] | Structure (SMILES)
10 to 30 | > 20 | CCN(C(=O)c1nn(C2CCN(C)CC2)c(=O)c2c1c1ccccc1n2C)c1ccccc1 [Example 199, N-ethyl-5-methyl-3-(1-methylpiperidin-4-yl)-4-oxo-N-phenyl-4,5-dihydro-3H-pyridazino[4,5-b]indole-1-carboxamide]
30 to 80 | – | Cc1ccc(-n2nc(C(=O)N3CCCc4ccccc43)c3c4ccccc4n(C)c3c2=O)cc1 [Example 159, 5-methyl-1-(1,2,3,4-tetrahydroquinoline-1-carbonyl)-3-(p-tolyl)-3H-pyridazino[4,5-b]indol-4(5H)-one]
30 to 80 | > 20 | CCN(C(=O)c1nn(-c2ccc(C)cc2)c(=O)c2c1c1sc(C)cc1n2C)c1ccccc1F [Example 247, N-ethyl-N-(2-fluorophenyl)-2,4-dimethyl-5-oxo-6-(p-tolyl)-5,6-dihydro-4H-thieno[2′,3′:4,5]pyrrolo[2,3-d]pyridazine-8-carboxamide]
30 to 80 | – | CCN(C(=O)Cn1ncc2c(c1=O)c1ccccc1n2Cc1cccc(C#N)c1)c1ccc2c(c1)OC(F)(F)O2 [Example 142, 2-(5-(3-cyanobenzyl)-1-oxo-1H-pyridazino[4,5-b]indol-2(5H)-yl)-N-(2,2-difluorobenzo[d][1,3]dioxol-5-yl)-N-ethylacetamide]
> 80 | – | COc1cc2c(=O)n(CC(=O)N(C)c3ccc4nc(C)oc4c3)nc(-c3cccc(F)c3)c2cc1Cl [Example 93, 2-(6-chloro-4-(3-fluorophenyl)-7-methoxy-1-oxophthalazin-2(1H)-yl)-N-methyl-N-(2-methylbenzo[d]oxazol-6-yl)acetamide]
30 to 80 | – | CCc1ccc(N(CC)C(=O)Cn2nc(-c3cccc4cnccc34)c3ccccc3c2=O)cc1 [Example 6, N-ethyl-N-(4-ethylphenyl)-2-(4-(isoquinolin-5-yl)-1-oxophthalazin-2(1H)-yl)acetamide]
> 80 | < 10 | CCN(C(=O)c1nn(C(C)c2ccccc2)c(=O)c2c1c1c(C)cccc1n2C)c1ccccc1 (stereo not drawn) [Example 218, N-ethyl-5,9-dimethyl-4-oxo-N-phenyl-3-(1-phenylethyl)-4,5-dihydro-3H-pyridazino[4,5-b]indole-1-carboxamide]
> 80 | < 10 | CCN(C(=O)Cn1nc(-c2cccc(C#N)c2)c2ccc(OC)cc2c1=O)c1ccc2nc(C)oc2c1 [Example 81, 2-(4-(3-cyanophenyl)-7-methoxy-1-oxophthalazin-2(1H)-yl)-N-ethyl-N-(2-methylbenzo[d]oxazol-6-yl)acetamide]
30 to 80 | – | CCN(C(=O)c1nn(-c2ccc(C)cc2)c(=O)c2c1c1ccccc1n2C(C)C)c1ccccc1 [Example 225, N-ethyl-5-isopropyl-4-oxo-N-phenyl-3-(p-tolyl)-4,5-dihydro-3H-pyridazino[4,5-b]indole-1-carboxamide]
30 to 80 | < 10 | CCOc1ccc(N(CC)C(=O)c2nn(C(C)C)c(=O)c3c2c2ccccc2n3C)cc1 [Example 210, N-(4-ethoxyphenyl)-N-ethyl-3-isopropyl-5-methyl-4-oxo-4,5-dihydro-3H-pyridazino[4,5-b]indole-1-carboxamide]
10 to 30 | < 10 | CCN(C(=O)c1nn(-c2ccc(C)cc2)c(=O)c2c1c1sc(C)cc1n2C)c1ccccc1 [Example 245, N-ethyl-2,4-dimethyl-5-oxo-N-phenyl-6-(p-tolyl)-5,6-dihydro-4H-thieno[2′,3′:4,5]pyrrolo[2,3-d]pyridazine-8-carboxamide]
30 to 80 | – | CCN(C(=O)Cn1nc(Cc2cccnc2)c2cc(OC)ccc2c1=O)c1ccc2c(c1)OC(F)(F)O2 [Example 51, N-(2,2-difluorobenzo[d][1,3]dioxol-5-yl)-N-ethyl-2-(6-methoxy-1-oxo-4-(pyridin-3-ylmethyl)phthalazin-2(1H)-yl)acetamide]
> 80 | – | CCOc1cc2c(=O)n(CC(=O)N(C)c3ccc4nc(C)oc4c3)nc(-c3cccc(F)c3)c2cc1Cl [Example 121, 2-(6-chloro-7-ethoxy-4-(3-fluorophenyl)-1-oxophthalazin-2(1H)-yl)-N-methyl-N-(2-methylbenzo[d]oxazol-6-yl)acetamide]
10 to 30 | > 20 | CCN(C(=O)c1nn(-c2ncccn2)c(=O)c2c1c1ccccc1n2C)c1ccccc1 [Example 171, N-ethyl-5-methyl-4-oxo-N-phenyl-3-(pyrimidin-2-yl)-4,5-dihydro-3H-pyridazino[4,5-b]indole-1-carboxamide]
30 to 80 | > 20 | CC(C)n1nc(-c2cccc(C#N)c2)c2c3ccccc3n(C)c2c1=O [Example 240, 3-(3-isopropyl-5-methyl-4-oxo-4,5-dihydro-3H-pyridazino[4,5-b]indol-1-yl)benzonitrile]
30 to 80 | < 10 | CCN(C(=O)c1nn(-c2ccc(C)cc2)c(=O)c2c1c1c(OC)cccc1n2C)c1ccccc1 [Example 195, N-ethyl-9-methoxy-5-methyl-4-oxo-N-phenyl-3-(p-tolyl)-4,5-dihydro-3H-pyridazino[4,5-b]indole-1-carboxamide]
30 to 80 | > 20 | Cc1ccc(-n2nc(C(=O)Nc3cc(Cl)ccc3C(=O)O)c3c4ccccc4n(C)c3c2=O)cc1 [Example 184, 4-chloro-2-(5-methyl-4-oxo-3-(p-tolyl)-4,5-dihydro-3H-pyridazino[4,5-b]indole-1-carboxamido)benzoic acid]
> 80 | < 10 | CCN(C(=O)Cn1nc(-c2cccc(F)c2)c2ccccc2c1=O)c1ccc2c(c1)OC(F)(F)O2 [Example 23, N-(2,2-difluorobenzo[d][1, 3]dioxol-5-yl)-N-ethyl-2-(4-(3-fluorophenyl)-1-oxophthalazin-2(1H)-yl)acetamide]
30 to 80 | < 10 | CCN(C(=O)c1nn(CC2CCCO2)c(=O)c2c1c1ccccc1n2C)c1ccccc1 (stereo not drawn) [Example 216, N-ethyl-5-methyl-4-oxo-N-phenyl-3-((THF-2-yl)methyl)-4,5-dihydro-3H-pyridazino[4,5-b]indole-1-carboxamide]
30 to 80 | – | CCN(C(=O)Cn1nc(Cc2cccnc2)c2cc(Cl)ccc2c1=O)c1ccc2c(c1)OC(F)(F)O2 [Example 53, 2-(6-chloro-1-oxo-4-(pyridin-3-ylmethyl)phthalazin-2(1H)-yl)-N-(2,2-difluorobenzo[d][1,3]dioxol-5-yl)-N-ethylacetamide]
> 80 | – | COc1ccc2c(-c3cccc(C#N)c3)nn(CC(=O)N(C)c3ccc4c(c3)OC(F)(F)O4)c(=O)c2c1 [Example 69, 2-(4-(3-cyanophenyl)-7-methoxy-1-oxophthalazin-2(1H)-yl)-N-(2,2-difluorobenzo[d][1, 3]dioxol-5-yl)-N-methylacetamide]
30 to 80 | – | CCN(C(=O)c1nn(-c2ccc(C)cc2)c(=O)c2c1c1ccccc1n2CC(=O)O)c1ccccc1 [Example 224, 2-(1-(ethyl(phenyl)carbamoyl)-4-oxo-3-(p-tolyl)-3H-pyridazino[4,5-b]indol-5(4H)-yl)acetic acid]
30 to 80 | – | CCN(C(=O)c1nn(-c2ccc(C)cc2)c(=O)c2[nH]c3ccccc3c12)c1cccc(Cl)c1 [Example 221, N-(3-chlorophenyl)-N-ethyl-4-oxo-3-(p-tolyl)-4,5-dihydro-3H-pyridazino[4,5-b]indole-1-carboxamide]
> 80 | < 10 | CCN(C(=O)Cn1nc(-c2cccc(C#N)c2)c2ccc(OC)cc2c1=O)c1ccc2c(c1)OC(F)(F)O2 [Example 75, 2-(4-(3-cyanophenyl)-7-methoxy-1-oxophthalazin-2(1H)-yl)-N-(2,2-difluorobenzo[d][1,3]dioxol-5-yl)-N-ethylacetamide]
30 to 80 | – | CCc1ccc(N(CC)C(=O)Cn2nc(Cc3cccnc3)c3c(C)cccc3c2=O)cc1 [Example 31, N-ethyl-N-(4-ethylphenyl)-2-(5-methyl-1-oxo-4-(pyridin-3-ylmethyl)phthalazin-2(1H)-yl)acetamide]
30 to 80 | – | Cc1ccc(-n2nc(C(=O)N(c3ccccc3)C3CC3)c3c4ccccc4n(C)c3c2=O)cc1 [Example 153, N-cyclopropyl-5-methyl-4-oxo-N-phenyl-3-(p-tolyl)-4,5-dihydro-3H-pyridazino[4,5-b]indole-1-carboxamide]
30 to 80 | < 10 | CCN(C(=O)c1nn(-c2ccc(C)cc2)c(=O)c2c1c1cc(Cl)ccc1n2C)c1ccccc1 [Example 165, 8-chloro-N-ethyl-5-methyl-4-oxo-N-phenyl-3-(p-tolyl)-4,5-dihydro-3H-pyridazino[4,5-b]indole-1-carboxamide]
10 to 30 | < 10 | Cc1ccc(-n2nc(C(=O)N(c3ccccc3)C(C)C)c3c(-c4ccccc4)onc3c2=O)cc1 [Example 248, N-isopropyl-7-oxo-N,3-diphenyl-6-(p-tolyl)-6,7-dihydroisoxazolo[3,4-d]pyridazine-4-carboxamide]
30 to 80 | – | CCN(C(=O)Cn1nc(C(=O)N(CC)c2cccc(Cl)c2)c2c3ccccc3n(C)c2c1=O)c1ccc2c(c1)OC(F)(F)O2 [Example 202, N-(3-chlorophenyl)-3-(2-((2,2-difluorobenzo[d][1,3]dioxol-5-yl)(ethyl)amino)-2-oxoethyl)-N-ethyl-5-methyl-4-oxo-4,5-dihydro-3H-pyridazino[4,5-b]indole-1-carboxamide]
30 to 80 | – | CCc1ccc(N(CC)C(=O)Cn2nc(Cc3cccnc3)c3cc(C(C)(C)C)ccc3c2=O)cc1 [Example 34, 2-(6-(tert-butyl)-1-oxo-4-(pyridin-3-ylmethyl)phthalazin-2(1H)-yl)-N-ethyl-N-(4-ethylphenyl)acetamide]
